Counter-ions that a name gives are not always drawn.
Experiments:
Experiment in all cases: In vitro activity, dilution method in a liquid medium (MIC)
Type in all cases: cell-based
Providencia Du 48 = conditions: DU48, 24 H
Procedure: (§1) In vitro activity, dilution method in a liquid medium.
(§2) A series of tubes were prepared in which an equal quantity of sterile nutritive medium was distributed. Increasing quantities of the product under test were distributed into each tube and then each tube was seeded with a bacterial strain. After incubation for 24 or 48 hours in an incubator at 37° C., the inhibition of the growth was estimated by transillumination, which enabled the minimal inhibiting concentrations (M.I.C.), expressed in micrograms/ml to be determined.

[1] = tested on: Pseudomonas aeruginosa 1771 m; conditions: 24 H
Procedure: as §1, §2

Escherichia Coli 1507 E = conditions: COLI1507E, 24 H
Procedure: as §1, §2

Escherichia Coli UC 1894 = conditions: UC1894, 24 H
Procedure: as §1, §2

Escherichia Coli DC 2 = conditions: COLIDC2, 24 H
Procedure: as §1, §2

[2] = tested on: Proteus vulgaris (indol) A 232; conditions: 24 H
Procedure: as §1, §2

[3] = tested on: Enterobacter cloacae 1 321 E; conditions: 1321E, 24 H
Procedure: as §1, §2

Serratia RG 2 532 = conditions: RG2532, 24 H
Procedure: as §1, §2

[4] = tested on: Kiebsiella aerogenes 1 522 E; conditions: 24 H
Procedure: as §1, §2

[5] = tested on: Proteus mirabilis (indol-) A 235; conditions: 24 H
Procedure: as §1, §2

[6] = tested on: Kiebsiella pneumoniae Exp. 52 145; conditions: 24 H
Procedure: as §1, §2

Escherichia Coli T E M = conditions: 24 H
Procedure: as §1, §2

Escherichia Coli O 75 = conditions: COLIO75, 24 H
Procedure: as §1, §2

Escherichia Coli DC 0 = conditions: COLIDC0, 24 H
Procedure: as §1, §2

[7] = tested on: Streptococcus pyogenes 77 A; conditions: 24 H
Procedure: as §1, §2

[8] = tested on: Staphylococcus aureus Exp. n° 54 146; conditions: 24 H
Procedure: as §1, §2

[9] = tested on: Staphylococcus aureus 285; conditions: 24 H
Procedure: as §1, §2

[10] = tested on: Streptococcus pyogenes A 561; conditions: A561, 24 H
Procedure: as §1, §2

[11] = tested on: Saimonella typhimurium MZ 11; conditions: 24 H
Procedure: as §1, §2

| SMILES | MIC (Providencia Du 48) [µg/mL] | MIC [1] [µg/mL] | MIC (Escherichia Coli 1507 E) [µg/mL] | MIC (Escherichia Coli UC 1894) [µg/mL] | MIC (Escherichia Coli DC 2) [µg/mL] | MIC [2] [µg/mL] | MIC [3] [µg/mL] | MIC (Serratia RG 2 532) [µg/mL] | MIC [4] [µg/mL] | MIC [5] [µg/mL] | MIC [6] [µg/mL] | MIC (Escherichia Coli T E M) [µg/mL] | MIC (Escherichia Coli O 75) [µg/mL] | MIC (Escherichia Coli DC 0) [µg/mL] | MIC [7] [µg/mL] | MIC [8] [µg/mL] | MIC [9] [µg/mL] | MIC [10] [µg/mL] | MIC [11] [µg/mL] |
| --- | --- | --- | --- | --- | --- | --- | --- | --- | --- | --- | --- | --- | --- | --- | --- | --- | --- | --- | --- |
| CO/N=C(\C(=O)N[C@@H]1C(=O)N2C(C(=O)O)=C(/C=C/C[n+]3cccc4ccsc43)CS[C@H]12)c1csc(N)n1 [ex. 1] | 0.3 | 0.6 | 0.01 | ≤ 0.01 | 0.01 | 0.3 | 0.04 | 0.15 | 0.15 | 0.04 | 0.08 | 0.04 | 0.02 | 0.04 | ≤ 0.01 | 0.3 | 0.15 | ≤ 0.01 | 0.04 |
| Nc1nc(/C(=N/OC(F)F)C(=O)N[C@@H]2C(=O)N3C(C(=O)[O-])=C(/C=C/C[n+]4cccc5ccsc54)CS[C@H]23)cs1 [ex. 2, (6R,7R)-7-[[(2-amino-4-thiazolyl) [(Z)]-[(difluoromethoxy)imino]]acetamido]-8-oxo-3 [(E) 3-[7-[thieno[2,3-b]pyridino]-1-propenyl]-5-thia-1-azabicyclo[4,2,0]oct-2-en-2-carboxylate (internal salt)] | 2.5 | 1.2 | 0.15 | 0.04 | 0.6 | 0.3 | 0.3 | 10 | 0.6 | 0.08 | 0.6 | 0.6 | 1.2 | 2.5 | ≤ 0.01 | 5 | 5 | ≤ 0.01 | 0.3 |
| CO/N=C(\C(=O)N[C@@H]1C(=O)N2C(C(=O)[O-])=C(/C=C/C[n+]3cccc4ccsc43)CS[C@H]12)c1csc(N)n1 [ex. 3, (6R,7R)-7-[[(2-amino-4-thiazolyl)-[(Z)[methoxyimino]]-acetamido]-8-oxo-3-[(E)-3-[7-[thieno[2,3-b]pyridinio]-1-propenyl]-5-thia-1-azabicyclo[4,2,0]oct-2-en-2-carboxylate (internal salt)] | 1.2 | 2.5 | 0.04 | 0.08 | 0.08 | 0.2 | 0.6 | 5 | 0.6 | 0.04 | 1.2 | 0.6 | 0.3 | 1.2 | ≤ 0.01 | 2.5 | 2.5 | ≤ 0.01 | 0.3 |

— patent publication US5075298A, “Cephalosporins” (Roussel Uclaf, priority 1987, dated 1991)
